BindingDB's records for doi:10.1016/j.bmc.2007.03.063 (Zhengzhou University, 2007)

target: Maltase-glucoamylase (Homo sapiens, UniProt O43451); experiment: Inhibition of alpha-glucosidase
Sequence (O43451 whole entry): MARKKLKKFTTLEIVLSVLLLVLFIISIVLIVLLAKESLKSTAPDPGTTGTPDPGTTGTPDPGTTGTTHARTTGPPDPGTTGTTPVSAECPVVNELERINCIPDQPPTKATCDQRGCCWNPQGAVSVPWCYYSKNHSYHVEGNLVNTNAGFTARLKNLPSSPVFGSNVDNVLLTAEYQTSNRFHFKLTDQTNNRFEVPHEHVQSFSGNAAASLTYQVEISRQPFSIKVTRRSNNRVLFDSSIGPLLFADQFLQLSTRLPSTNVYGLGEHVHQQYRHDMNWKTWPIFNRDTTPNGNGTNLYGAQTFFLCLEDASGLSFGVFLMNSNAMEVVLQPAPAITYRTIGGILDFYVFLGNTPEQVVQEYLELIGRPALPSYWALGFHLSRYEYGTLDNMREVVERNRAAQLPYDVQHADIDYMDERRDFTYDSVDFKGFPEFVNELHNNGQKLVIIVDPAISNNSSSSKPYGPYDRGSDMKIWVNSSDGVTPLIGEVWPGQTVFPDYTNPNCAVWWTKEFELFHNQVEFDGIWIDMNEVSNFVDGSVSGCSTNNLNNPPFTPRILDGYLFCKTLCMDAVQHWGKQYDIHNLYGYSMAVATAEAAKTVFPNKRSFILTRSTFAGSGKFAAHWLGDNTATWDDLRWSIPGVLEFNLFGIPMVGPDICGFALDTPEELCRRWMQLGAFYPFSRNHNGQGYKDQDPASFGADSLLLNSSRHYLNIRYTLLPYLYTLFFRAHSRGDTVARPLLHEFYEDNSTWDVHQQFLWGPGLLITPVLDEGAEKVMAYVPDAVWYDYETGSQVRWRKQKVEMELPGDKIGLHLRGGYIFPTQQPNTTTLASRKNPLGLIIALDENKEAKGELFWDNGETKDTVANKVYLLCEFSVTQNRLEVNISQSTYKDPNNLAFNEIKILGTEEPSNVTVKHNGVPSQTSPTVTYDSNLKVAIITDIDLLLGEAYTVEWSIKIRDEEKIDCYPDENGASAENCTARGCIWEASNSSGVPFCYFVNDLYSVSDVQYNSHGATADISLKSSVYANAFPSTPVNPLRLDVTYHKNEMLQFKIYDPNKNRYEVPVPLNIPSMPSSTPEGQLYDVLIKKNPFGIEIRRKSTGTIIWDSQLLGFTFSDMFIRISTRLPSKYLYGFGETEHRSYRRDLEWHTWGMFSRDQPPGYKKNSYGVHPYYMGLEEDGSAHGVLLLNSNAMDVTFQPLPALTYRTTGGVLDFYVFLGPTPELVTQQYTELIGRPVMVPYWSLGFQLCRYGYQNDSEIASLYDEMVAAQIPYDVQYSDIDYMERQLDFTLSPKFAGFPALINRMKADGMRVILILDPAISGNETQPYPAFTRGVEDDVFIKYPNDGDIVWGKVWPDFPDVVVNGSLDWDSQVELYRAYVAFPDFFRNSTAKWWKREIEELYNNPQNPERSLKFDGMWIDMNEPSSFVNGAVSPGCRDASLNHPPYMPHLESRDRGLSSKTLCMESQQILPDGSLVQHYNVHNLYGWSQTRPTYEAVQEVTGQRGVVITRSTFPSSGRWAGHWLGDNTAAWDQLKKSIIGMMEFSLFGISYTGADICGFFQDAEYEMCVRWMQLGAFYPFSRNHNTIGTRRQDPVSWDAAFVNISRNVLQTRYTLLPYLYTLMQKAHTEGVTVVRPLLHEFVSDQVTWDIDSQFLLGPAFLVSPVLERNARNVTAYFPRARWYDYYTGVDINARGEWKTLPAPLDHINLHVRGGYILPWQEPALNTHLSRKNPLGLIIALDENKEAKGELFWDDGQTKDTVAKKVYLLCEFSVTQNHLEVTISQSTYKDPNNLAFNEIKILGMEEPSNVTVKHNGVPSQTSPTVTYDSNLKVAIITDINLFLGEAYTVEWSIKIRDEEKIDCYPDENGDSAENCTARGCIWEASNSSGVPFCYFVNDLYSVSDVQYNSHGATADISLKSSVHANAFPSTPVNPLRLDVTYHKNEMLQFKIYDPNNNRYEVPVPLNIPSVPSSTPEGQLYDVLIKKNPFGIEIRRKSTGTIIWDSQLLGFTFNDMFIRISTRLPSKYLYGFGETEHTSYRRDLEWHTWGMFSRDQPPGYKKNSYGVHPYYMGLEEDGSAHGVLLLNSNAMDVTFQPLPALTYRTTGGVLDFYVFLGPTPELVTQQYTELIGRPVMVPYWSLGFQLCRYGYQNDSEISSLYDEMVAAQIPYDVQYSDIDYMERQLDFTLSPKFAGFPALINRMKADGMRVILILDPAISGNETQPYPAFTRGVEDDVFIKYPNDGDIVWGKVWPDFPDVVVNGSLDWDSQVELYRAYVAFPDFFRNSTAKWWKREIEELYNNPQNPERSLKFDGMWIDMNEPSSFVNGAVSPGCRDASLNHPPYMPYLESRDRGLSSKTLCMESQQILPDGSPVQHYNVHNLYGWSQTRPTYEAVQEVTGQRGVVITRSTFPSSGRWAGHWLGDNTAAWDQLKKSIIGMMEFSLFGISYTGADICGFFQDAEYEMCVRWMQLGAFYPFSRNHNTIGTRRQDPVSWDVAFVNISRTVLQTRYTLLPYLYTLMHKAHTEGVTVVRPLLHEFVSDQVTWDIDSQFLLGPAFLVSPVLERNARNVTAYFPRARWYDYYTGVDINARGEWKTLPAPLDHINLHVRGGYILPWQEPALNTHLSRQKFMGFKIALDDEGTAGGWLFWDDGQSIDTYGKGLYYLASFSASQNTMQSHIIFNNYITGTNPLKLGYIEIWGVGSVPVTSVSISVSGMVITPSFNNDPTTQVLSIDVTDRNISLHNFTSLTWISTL

| IC50 [µM] | Structure (SMILES) |
| --- | --- |
| 16 | C=C1CC[C@@H]2[C@](C)(COC(=O)c3cccnc3)[C@H](OC(=O)c3cccnc3)CC[C@@]2(C)[C@@H]1/C=C/C1=CC(=C\c2ccccc2)/OC1=O [15-benzylidene14-deoxy-11,12-didehydro-3,19-dinicotinateandrographolide] |
| 25 | C=C1CC[C@@H]2[C@](C)(COC(=O)c3cccnc3)[C@H](OC(=O)c3cccnc3)CC[C@@]2(C)[C@@H]1/C=C/C1=CC(=C\c2ccc(N(C)C)cc2)/OC1=O [14-deoxy-11,12-didehydro-3,19-dinicotinate-15-(p(-dimethylamino)benzylidene)-andrographolide] |
| 36 | C=C1CC[C@@H]2[C@](C)(COC(=O)c3cccnc3)[C@H](OC(=O)c3cccnc3)CC[C@@]2(C)[C@@H]1/C=C/C1=CC(=C/c2ccco2)/OC1=O [14-deoxy-11,12-didehydro-3,19-dinicotinate-15-(2-furanmethanylidene)-andrographolide] |
| 28 | C=C1CC[C@@H]2[C@](C)(COC(=O)c3cccnc3)[C@H](OC(=O)c3cccnc3)CC[C@@]2(C)[C@@H]1/C=C/C1=CC(=C\C(C)=C\CCC/C=C/C)/OC1=O [14-deoxy-11,12-didehydro-3,19-dinicotinate-15-(2,8-dimethanyl-2,7-octanedieneylidene)-andrographolide] |
| 84 | C=C1CC[C@@H]2[C@](C)(CO)[C@H](O)CC[C@@]2(C)[C@@H]1/C=C/C1=CC(=C/c2cc(OC)c(OC)cc2OC)/OC1=O [14-deoxy-11,12-didehydro-15-trimethoxylbenzylideneandrographolide] |
| 100 | C=C1CC[C@@H]2[C@](C)(CO)[C@H](O)CC[C@@]2(C)[C@@H]1/C=C/C1=CC(=C/c2ccco2)/OC1=O [14-deoxy-11,12-didehydro-15-(-2-furanmethanylidene)-andrographolide] |
| 14 | C=C1CC[C@@H]2[C@](C)(COC(=O)c3cccnc3)[C@H](OC(=O)c3cccnc3)CC[C@@]2(C)[C@@H]1/C=C/C1=CC(=C\c2cccc(Br)c2)/OC1=O [15-(m-bromoacylbenzylidene)-14-deoxy-11,12-didehydro-3,19-dinicotinateandrographolide] |
| 82 | C=C1CC[C@@H]2[C@](C)(CO)[C@H](O)CC[C@@]2(C)[C@@H]1/C=C/C1=CC(=C/c2ccc3c(c2)OCO3)/OC1=O [15-(benzo[1,3]dioxole-5-methanylidene)-14-deoxy-11,12-didehydroandrographolide] |
| 58 | C=C1CC[C@@H]2[C@](C)(CO)[C@H](O)CC[C@@]2(C)[C@@H]1/C=C/C1=CC(=C/c2ccccc2)/OC1=O [15-benzylidene-14-deoxy-11,12-didehydroandrographolide] |
| 6 | C=C1CC[C@@H]2[C@](C)(COC(=O)c3cccnc3)[C@H](OC(=O)c3cccnc3)CC[C@@]2(C)[C@@H]1/C=C/C1=CC(=C\c2ccc(Cl)cc2)/OC1=O [15-(p-chlorinebenzylidene)-14-deoxy-11,12-didehydro-3,19-dinicotinateandrographolide] |
| 11 | C=C1CC[C@@H]2[C@](C)(COC(=O)c3cccnc3)[C@H](OC(=O)c3cccnc3)CC[C@@]2(C)[C@@H]1/C=C/C1=CC(=C\c2ccc(OC)cc2)/OC1=O [14-deoxy-11,12-didehydro-3,19-dinicotinate-15-p-methoxylbenzylidene andrographolide] |
| 70 | C=C1CC[C@@H]2[C@](C)(CO)[C@H](O)CC[C@@]2(C)[C@@H]1/C=C/C1=CC(=C/c2ccc(N(C)C)cc2)/OC1=O [14-deoxy-15-(p-(dimethanylamino)-benzylidene)-11,12-didehydroandrographolide] |
